Laboratory results from ChEMBL document CHEMBL1131775, “The synthesis of water soluble prodrugs analogs of echinocandin B” (1999).
Values after ≈ are worked out from the molar mass of the structure shown. Starred links: 1 amine or outer side, 2 acyl side, 3 side chain; linkers in the order of their positions; H or OH if unused. Positions of bridges follow the written chain, without caps; N, C: chain ends. Non-standard residues stand in square brackets, D forms with d. Residues, ends and D or L forms follow the SMILES beside them. *: point of attachment. pTerphenylCO(4''-OnC5H11) = CCCCCOc1ccc(-c2ccc(-c3ccc(C(=O)*)cc3)cc2)cc1; Orn(4R-OH,5R-OH) = O=C([C@H](C[C@@H](O)[C@@H](O)N[*:3])N[*:1])[*:2]; hTyr(3S-OH,4S-OH) = N[C@H](C(=O)O)[C@H](O)[C@@H](O)c1ccc(O)cc1; X1 = COP(=O)(O)Oc1ccc(C[C@@H](O)[C@H](N[*:1])C(=O)[*:2])cc1; Orn(4R-OH) = O=C([C@H](C[C@@H](O)CN[*:3])N[*:1])[*:2]; Pro(3S-OH,4S-Me) = C[C@H]1CN[C@H](C(=O)O)[C@H]1O; Hyp = O=C(O)[C@@H]1C[C@@H](O)CN1

Assays:
Candida albicans [1] = experiment: In vitro antifungal activity against candida albicans; assay type: functional
Candida albicans [2] = experiment: In vitro antifungal activity against candida albicans after intraperitoneal administration of the compound; assay type: functional; conditions: ip

| SMILES | MIC (Candida albicans [1]) [µg/mL] | ED50 (Candida albicans [2]) [mg/kg] |
| --- | --- | --- |
| CCCCCOc1ccc(-c2ccc(-c3ccc(C(=O)N[C@H]4C[C@@H](O)CNC(=O)[C@@H]5[C@@H](O)[C@@H](C)CN5C(=O)[C@H]([C@@H](C)O)NC(=O)[C@H]([C@H](O)Cc5ccc(OP(=O)(O)OC)cc5)NC(=O)[C@@H]5C[C@@H](O)CN5C(=O)[C@H]([C@@H](C)O)NC4=O)cc3)cc2)cc1 ({pTerphenylCO(4''-OnC5H11)}-[Orn(4R-OH)]T[Hyp][X1]T[Pro(3S-OH,4S-Me)]; lactam 1-C) | 0.312 (≈ 0.26 µM) | 0.47 |
| CCCCCOc1ccc(-c2ccc(-c3ccc(C(=O)N[C@H]4C[C@@H](O)[C@@H](O)NC(=O)[C@@H]5[C@@H](O)[C@@H](C)CN5C(=O)[C@H]([C@@H](C)O)NC(=O)[C@H]([C@H](O)[C@@H](O)c5ccc(O)cc5)NC(=O)[C@@H]5C[C@@H](O)CN5C(=O)[C@H]([C@@H](C)O)NC4=O)cc3)cc2)cc1 [ANIDULAFUNGIN] ({pTerphenylCO(4''-OnC5H11)}-[Orn(4R-OH,5R-OH)]T[Hyp][hTyr(3S-OH,4S-OH)]T[Pro(3S-OH,4S-Me)]; lactam 1-C) | 0.01 (≈ 0.00877 µM) | 0.32 |
